Laboratory results as given in patent US7163696B2, “Pharmaceutical formulations” (Pfizer Inc., priority 2001, dated 2007).

Columns and labels:
[1] = Measurement of Papp values across Caco-2 cell monolayers (Example 15); format: in vitro ADME; conditions: human, initial concentration in donor (apical) chamber 25 μM, 37° C.
Text: P Artursson and J Karlsson described the use of monolayers of Caco-2 cells to generate apparent permeability coefficients (Papp values) for drug absorption across the intestinal epithelium in ‘Correlation between oral drug absorption in humans and apparent drug permeability coefficients in human intestinal epithelial (Caco-2) cells’, Biochemical and Biophysical Research Communications, Vol 175 (3), pp 880–885, 1991.
Preferably, when measuring the Papp value, the initial concentration of test compound in the donor chamber is at a relevant therapeutic concentration, for example 25 μM.
Caco-2 cells originating from a human colon carcinoma were obtained from the ATCC (HTB-37) and were used between passage number 24–44. Cells were maintained in MEM with Earles salts containing 2 mM L-glutamine, 1 mM sodium pyruvate, 1% (v/v) MEM non-essential amino acids (Gibco) and 20% foetal calf serum (Sigma) at 37° C. in an atmosphere of 5% CO2 and 90% relative humidity. Falcon 24 well filter inserts (Becton Dickinson) were seeded with 4×10^4 cells/well. […]
Transport data across the Caco-2 cell monolayers is expressed as Papp values. Papp values are calculated according to the equation disclosed by Artursson and Karlsson as follows: Papp=(dQ/dt)(1/AC0), wherein dQ/dt is the permeability rate, Co the initial concentration in the donor chamber, and A the surface area of the monolayer.

[2] = Bioavailability testing by the applicants (unpublished); conditions: in vivo

Papp A→B at 2 h, 25 μM [1] [×10⁻⁶ cm/s]	absorption from the colon [2]	Structure (SMILES)
11		COc1cc2nc(N3CCc4c(cccc4NS(C)(=O)=O)C3)nc(N)c2c(-c2ccccn2)c1OC.CS(=O)(=O)O [4-amino-6,7-dimethoxy-2-(5-methanesulfonamido-1,2,3,4-tetrahydroisoquinol-2-yl)-5-(2-pyridyl)quinazoline mesylate]
	low, and highly variable	COc1cc2nc(N3CCc4c(cccc4NS(C)(=O)=O)C3)nc(N)c2c(-c2ccccn2)c1OC [4-amino-6,7-dimethoxy-2-(5-methanesulfonamido-1,2,3,4-tetrahydroisoquinol-2-yl)-5-(2-pyridyl)quinazoline]
